Assay results published in US10669284B2, “Fused thiazolopyrimidine derivatives as MNKS inhibitors” (LIFEARC, priority 2015, dated 2020).

Assays:
Full-length human MNK1 = biological target: T1, Full-length human MNK1 (Homo sapiens, UniProt Q9BUB5, T385D); assay: MNK1 biochemical IC50 assay (Caliper Mobility Shift Assay); details: read-out: P(IC50) MNK1 (converted)
T1 construct: GST (N); purchased Carna Biosciences 02-145; host or cells: baculovirus expression system
Description: (§1) The phosphorylated peptide product and unphosphorylated peptide substrate were detected using a Caliper Mobility Shift Assay using the Caliper LabChip EZ Reader II.
(§2) The Caliper Mobility Shift Assay technology is based on the utilisation of a microfluidic chip to measure the conversion of a fluorescent non-phosphorylated peptide substrate to phosphorylated product by electrophoresis separation of substrate and product and detection via Laser-induced fluorescence. The LabChip EZ Reader software calculates the relative heights of substrate and product peaks and reports the peak ratio (Product peak(P) divided by the sum of Product peak(P) and Substrate peak(S)). The percent-conversion is calculated as 100×[(P/(P+S)]. All assays were set up to run in the linear phase with a maximum of 10 percent substrate conversion.
(§3) These were N-terminal GST fusion proteins expressed in baculovirus expression system and purified by glutathione sepharose affinity chromatography. […] All other assay reagents were sourced from Sigma.
Compounds were serially diluted in DMSO to generate a 10-point half log dilution curve with a final top concentration of 100 uM in the assay. […] Compounds were pre-incubated with enzyme and peptide in reaction buffer for 30 mins prior to addition of ATP to initiate the reaction. Final assay concentrations were 3 nM MNK1, 2 uM peptide substrate, 50 uM ATP, 50 mM Hepes pH 7.0, 0.01% BSA, 10 mM MgCl2, 1 mM dithiothrietol.
(§4) The assay incubation times were adjusted depending on the concentration of ATP used. Assays were performed at low (50 uM) and high (1 mM) ATP. The low ATP values were selected to run at Km conditions for the standard assay to allow relative potencies to be compared across other kinases. The high ATP concentration was selected as representative of cellular ATP concentrations, and for an indication of ATP competition, where a significant shift (greater than half log) in apparent potency would be expected compared to Km conditions. All IC50 values reported are the average of at least two independent experiments.

Full-length human MNK2 = biological target: T2, Full-length human MNK2 (Homo sapiens, UniProt Q9HBH9, T379D); assay: MNK2 biochemical IC50 assay (Caliper Mobility Shift Assay); details: read-out: P(IC50) MNK2 (converted)
T2 construct: GST (N); purchased Carna Biosciences 02-146; host or cells: baculovirus expression system
Description: as §1, §2, §3, §4
Reactions were performed as above using 10 nM MNK2 in the assay. Standard assays contained 50 uM ATP and high concentration ATP assays contained 1 mM ATP. […] All other conditions were the same.

[1] = test system: phosphorylation of eIF4E at ser209 in MV4.11 cell line; assay: MNK cellular activity phospho-eIF4E detection assay (Alphascreen Surefire); assay type: cell-based; details: Homo sapiens; MV4.11 cell line, phospho-eIF4E (ser209) Alphascreen Surefire; read-out: P(IC50) elF4E (converted)
Description: The assay detection is based on the formation of sandwich antibody complexes coupled to donor and acceptor beads. Excitation at 680 nm causes the transfer of a singlet oxygen species between donor and acceptor beads when they are in close proximity by binding to the analyte ([…]), which results in the emission of light at 520-620 nm.
Cells were then lysed and the Alphascreen Surefire protocol followed according to manufacturer's recommendations. 8 ul Acceptor beads (1:50 dilution in kit activation buffer) was added to lysate, shaken 150 rpm for 2 min and incubated for 1.5 hr at room temperature. 3 ul Donor beads (1:20 dilution in kit dilution buffer) were then added, shaken 150 rpm for 2 min and incubated for a further 1.5 hr at room temperature after which the plates were read on Pherastar FS using Alphascreen optic module.
Data were normalised relative to untreated DMSO only controls and curves repeated in duplicate within experiments. Data reported are averages of at least 2 independent experiments.

T1 sequence (Q9BUB5 1-424 isoform Q9BUB5-2 T344D): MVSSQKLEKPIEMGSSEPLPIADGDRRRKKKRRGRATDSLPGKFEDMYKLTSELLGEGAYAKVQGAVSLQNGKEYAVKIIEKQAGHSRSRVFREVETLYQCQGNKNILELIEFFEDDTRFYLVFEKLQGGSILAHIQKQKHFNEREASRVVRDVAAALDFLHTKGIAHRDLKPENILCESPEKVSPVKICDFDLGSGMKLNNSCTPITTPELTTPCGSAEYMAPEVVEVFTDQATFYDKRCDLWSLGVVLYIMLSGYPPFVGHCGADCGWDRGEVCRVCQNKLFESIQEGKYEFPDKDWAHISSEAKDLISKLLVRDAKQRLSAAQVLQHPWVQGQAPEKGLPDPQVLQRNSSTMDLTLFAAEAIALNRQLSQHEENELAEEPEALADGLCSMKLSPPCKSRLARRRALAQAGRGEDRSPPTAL
T2 sequence (Q9HBH9 whole entry T379D): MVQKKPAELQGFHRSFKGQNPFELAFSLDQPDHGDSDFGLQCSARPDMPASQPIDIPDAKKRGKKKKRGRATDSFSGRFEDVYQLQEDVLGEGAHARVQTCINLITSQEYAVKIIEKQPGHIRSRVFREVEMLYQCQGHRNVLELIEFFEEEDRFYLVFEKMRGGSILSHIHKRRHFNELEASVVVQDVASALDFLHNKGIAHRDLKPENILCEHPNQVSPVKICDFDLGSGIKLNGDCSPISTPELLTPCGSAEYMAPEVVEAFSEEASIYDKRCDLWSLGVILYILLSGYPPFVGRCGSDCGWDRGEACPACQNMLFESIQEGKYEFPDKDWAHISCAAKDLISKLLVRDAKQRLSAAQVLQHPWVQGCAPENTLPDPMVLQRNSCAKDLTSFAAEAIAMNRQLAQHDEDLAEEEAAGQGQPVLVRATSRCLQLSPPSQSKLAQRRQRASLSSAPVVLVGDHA

| IC50 (Full-length human MNK1) | IC50 (Full-length human MNK2) | IC50 [1] | Structure (SMILES) |
| --- | --- | --- | --- |
| 2 nM | 3.16 nM | 2.51 nM | CC1(C)CN(c2ncnc3sc(C(=O)NC4CCOCC4)nc23)c2ccc(F)cc21 [Example 105, 7-(5-Fluoro-3,3-dimethyl-indolin-1-yl)-N-tetrahydropyran-4-yl-thiazolo[5,4-d]pyrimidine-2-carboxamide] |
| 316 nM | 126 nM | 501 nM | CNC(=O)c1nc2c(N3CCc4cc(C(F)(F)F)ccc43)ncnc2s1 [Example 158] |
| 50.1 nM | 39.8 nM | 39.8 nM | CC(C)Oc1cc(F)ccc1Nc1ncnc2sc(C(=O)NCCCN3CCCC3)nc12 [Example 13, 7-(4-fluoro-2-isopropoxy-anilino)-N-(3-pyrrolidin-1-ylpropyl)thiazolo[5,4-d]pyrimidine-2-carboxamide] |
| 100 nM | 79.4 nM | 79.4 nM | CC(C)Oc1cc(F)ccc1Nc1ncnc2sc(C(=O)NC3CCOCC3)nc12 [Example 33, 7-{[4-fluoro-2-(propan-2-yloxy)phenyl]amino}-N-(tetrahydro-2H-pyran-4-yl)[1,3]thiazolo[5,4-d]pyrimidine-2-carboxamide] |
| 10 nM | 10 nM | 15.8 nM | CC(C)CCNC(=O)c1nc2c(N3CC(CCN)c4ccccc43)ncnc2s1 (stereo not drawn) [Example 165, 7-[3-(2-aminoethyl)indolin-1-yl]-N-isopentyl-thiazolo[5,4-d]pyrimidine-2-carboxamide] |
| 5.01 nM | 5.01 nM | 5.01 nM | NCCC1CN(c2ncnc3sc(C(=O)NC4CC4)nc23)c2ccccc21 (stereo not drawn) [Example 164, 7-(3-(2-Aminoethyl)indolin-1-yl)-N-cyclo-propylthiazolo[5,4-d]pyrimidine-2-carboxamide] |
| 158 nM | 63.1 nM | 79.4 nM | O=C(Nc1ccc(Nc2ncnc3sc(C(=O)NCC4CCNCC4)nc23)cc1)Nc1cccc(C(F)(F)F)c1 [Example 49, N-(4-piperidylmethyl)-7-[4-[[3-(trifluoromethyl)phenyl]carbamoylamino]anilino]thiazolo[5,4-d]pyrimidine-2-carboxamide] |
| 251 nM | 251 nM | 251 nM | CN1CCN(c2ncnc3sc(C(=O)NCC4CCNCC4)nc23)c2ccc(F)cc21 [Example 57, 7-(6-fluoro-4-methyl-2,3-dihydroquinoxalin-1-yl)-N-(4-piperidylmethyl)thiazolo[5,4-d]pyrimidine-2-carboxamide] |
| 15.8 nM | 20 nM | 31.6 nM | CN1CCC(NC(=O)c2nc3c(N4CCc5cc([N+](=O)[O-])ccc54)ncnc3s2)CC1 [Example 45, N-(1-methylpiperidin-4-yl)-7-(5-nitro-2,3-dihydro-1H-indol-1-yl)[1,3]thiazolo[5,4-d]pyrimidine-2-carboxamide] |
| 25.1 nM | 20 nM | 15.8 nM | O=C(NC1COC1)c1nc2c(N3CCc4ccccc43)ncnc2s1 [Example 100, 7-indolin-1-yl-N-(oxetan-3-yl)thiazolo[5,4-d]pyrimidine-2-carboxamide] |
| 5.01 nM | 5.01 nM | 5.01 nM | CNCCCNC(=O)c1nc2c(N3CCc4cc(F)ccc43)ncnc2s1 [Example 72, 7-(5-fluoroindolin-1-yl)-N-[3-(methylamino)propyl]thiazolo[5,4-d]pyrimidine-2-carboxamide] |
| 63.1 nM | 50.1 nM | 100 nM | O=C(NC1CCOCC1)c1nc2c(N3CCc4cc(Cl)cc(F)c43)ncnc2s1 [Example 91, 7-(5-Chloro-7-fluoro-indolin-1-yl)-N-tetrahydropyran-4-yl-thiazolo[5,4-d]pyrimidine-2-carboxamide] |
| 31.6 nM | 39.8 nM | 126 nM | Nc1nc2c(N3CCc4cc(F)ccc43)ncnc2s1 [Example 83, 7-(5-Fluoroindolin-1-yl)thiazolo[5,4-d]pyrimidin-2-amine] |
| 3.16 nM | 5.01 nM | 20 nM | CC1(CO)CN(c2ncnc3sc(C(=O)NCC4CCNCC4)nc23)c2ccc(F)cc21 (stereo not drawn) [Example 141] |
| 6.31 nM | 3.16 nM | 7.94 nM | O=C(NC1COC1)c1nc2c(N3CCc4cc(F)ccc43)ncnc2s1 [Example 76, 7-(5-fluoroindolin-1-yl)-N-(oxetan-3-yl)thiazolo[5,4-d]pyrimidine-2-carboxamide] |
| 7.94 nM | 7.94 nM | 15.8 nM | CNCCCNC(=O)c1nc2c(N3CCc4ccccc43)ncnc2s1 [Example 97, 7-indolin-1-yl-N-[3-(methylamino)propyl] thiazolo[5,4-d]pyrimidine-2-carboxamide] |
| 25.1 nM | 20 nM | 31.6 nM | CC1Cc2ccccc2N1c1ncnc2sc(C(=O)NCCCN(C)C)nc12 (stereo not drawn) [Example 124] |
| 3.16 nM | 3.16 nM | 10 nM | O=C(NCCN1CCNCC1)c1nc2c(N3CCc4cc(F)ccc43)ncnc2s1 [Example 79, 7-(5-fluoroindolin-1-yl)-N-(2-piperazin-1-ylethyl)thiazolo[5,4-d]pyrimidine-2-carboxamide] |
| 6.31 nM | 6.31 nM | 39.8 nM | CC1(CO)CN(c2ncnc3sc(C(=O)NCC4CCNCC4)nc23)c2ccccc21 (stereo not drawn) [Example 140] |
| 3.16 nM | 3.16 nM | 15.8 nM | O=C(NCCCn1cccn1)c1nc2c(N3CCc4cc(F)ccc43)ncnc2s1 [Example 75, 7-(5-fluoroindolin-1-yl)-N-(3-pyrazol-1-ylpropyl)thiazolo[5,4-d]pyrimidine-2-carboxamide] |
| 10 nM | 20 nM | 100 nM | CN(C)CCCNc1nc2c(N3CCc4cc(F)ccc43)ncnc2s1 [Example 85, N1-(7-(5-fluoroindolin-1-yl)thiazolo[5,4-d]pyrimidin-2-yl)-N3,N3-dimethylpropane-1,3-diamine] |
| 100 nM | 79.4 nM | 50.1 nM | CN(C)CCC1CN(c2ncnc3sc(C(=O)NC4CCOCC4)nc23)c2ccccc21 (stereo not drawn) [Example 152, 7-[3-[2-(dimethylamino)ethyl]-indolin-1-yl]-N-tetrahydropyran-4-yl-thiazolo[5,4-d]pyrimidine-2-carboxamide] |
| 50.1 nM | 63.1 nM | 63.1 nM | CN(C)CCC1CN(c2ncnc3sc(C(=O)NC4CCOCC4)nc23)c2ccc(F)cc21 (stereo not drawn) [Example 148, 7-[3-[2-(dimethyl-amino)ethyl]-5-fluoro-indolin-1-yl]-N-tetrahydro-pyran-4-yl-thiazolo[5,4-d]pyrimidine-2-carboxamide] |
| 63.1 nM | 25.1 nM | 79.4 nM | Cc1ccc2c(c1)CCN2c1ncnc2sc(C(=O)NCC3CCNCC3)nc12 [Example 170, 7-(5-Methylindolin-1-yl)-N-(4-piperidylmethyl)thiazolo[5,4-d]pyrimidine-2-carboxamide] |
| 10 nM | 10 nM | 63.1 nM | O=C(NCC1CCOCC1)c1nc2c(N3CCc4ccccc43)ncnc2s1 [Example 103, 7-indolin-1-yl-N-(tetrahydropyran-4-ylmethyl)thiazoto[5,4-d]pyrimidine-2-carboxamide] |
| 20 nM | 12.6 nM | 10 nM | O=C(NCC(O)CO)c1nc2c(N3CCc4ccccc43)ncnc2s1 (stereo not drawn) [Example 104] |
| 12.6 nM | 15.8 nM | 20 nM | NCC1CN(c2ncnc3sc(C(=O)NC4CCOCC4)nc23)c2ccccc21 (stereo not drawn) [Example 119, 7-[3-(Aminomethyl)indolin-1-yl]-N-tetrahydropyran-4-yl-thiazolo[5,4-d]pyrimidine-2-carboxamide] |
